Experimental data taken from the NIST ThermoML archive (doi:10.1016/j.jct.2013.07.003).

Tests used:
[1] = relative permittivity at various frequencies (dimensionless); xn = mol fraction of the nth substance listed; settings: 101 kPa, Liquid, Frequency=0.1 MHz, Coaxial cylinder capacitor
[2] = refractive index (Na D-line) (dimensionless); xn = mol fraction of the nth substance listed; settings: 101 kPa, Liquid, Standard Abbe refractometry

CC(O)CCO (stereo not given) [1,3-butanediol] + CCCCCCCCO
Settings | refractive index, 298.2 K | refractive index, 303.2 K | refractive index, 308.2 K | refractive index, 313.2 K | refractive index, 318.2 K | relative permittivity, 298.2 K | relative permittivity, 303.2 K | relative permittivity, 308.2 K | relative permittivity, 313.2 K | relative permittivity, 318.2 K
[1], x1 = 0.105 | – | – | – | – | – | 10.43 | 9.99 | 9.56 | 9.1 | 8.74
[1], x1 = 0.2 | – | – | – | – | – | 11.24 | 10.8 | 10.32 | 9.91 | 9.5
[1], x1 = 0.301 | – | – | – | – | – | 12.31 | 11.86 | 11.36 | 10.95 | 10.54
[1], x1 = 0.401 | – | – | – | – | – | 13.6 | 13.15 | 12.62 | 12.19 | 11.76
[1], x1 = 0.45 | – | – | – | – | – | 14.39 | 13.92 | 13.39 | 12.94 | 12.49
[1], x1 = 0.501 | – | – | – | – | – | 15.23 | 14.73 | 14.21 | 13.75 | 13.27
[1], x1 = 0.55 | – | – | – | – | – | 16.1 | 15.6 | 15.04 | 14.53 | 14.06
[1], x1 = 0.6 | – | – | – | – | – | 17.05 | 16.52 | 15.93 | 15.42 | 14.92
[1], x1 = 0.66 | – | – | – | – | – | 18.34 | 17.77 | 17.13 | 16.57 | 16.07
[1], x1 = 0.7 | – | – | – | – | – | 19.31 | 18.77 | 18.02 | 17.46 | 16.91
[1], x1 = 0.801 | – | – | – | – | – | 21.99 | 21.34 | 20.58 | 20.02 | 19.37
[1], x1 = 0.9 | – | – | – | – | – | 25.05 | 24.33 | 23.43 | 22.79 | 22.1
[1], x1 = 0.95 | – | – | – | – | – | 26.73 | 25.9 | 25.07 | 24.31 | 23.62
[1], x1 = 1 | – | – | – | – | – | 28.52 | 27.66 | 26.77 | 25.98 | 25.22
[2], x1 = 0.105 | 1.4279 | 1.4257 | 1.4233 | 1.4209 | 1.4189 | – | – | – | – | –
[2], x1 = 0.2 | 1.4283 | 1.4261 | 1.4238 | 1.4215 | 1.4195 | – | – | – | – | –
[2], x1 = 0.301 | 1.4288 | 1.4268 | 1.4245 | 1.4223 | 1.4204 | – | – | – | – | –
[2], x1 = 0.401 | 1.4295 | 1.4275 | 1.4253 | 1.4232 | 1.4213 | – | – | – | – | –
[2], x1 = 0.45 | 1.43 | 1.4281 | 1.4259 | 1.4239 | 1.4221 | – | – | – | – | –
[2], x1 = 0.501 | 1.4305 | 1.4286 | 1.4265 | 1.4245 | 1.4227 | – | – | – | – | –
[2], x1 = 0.55 | 1.4311 | 1.4292 | 1.4272 | 1.4253 | 1.4236 | – | – | – | – | –
[2], x1 = 0.6 | 1.4316 | 1.4298 | 1.4278 | 1.426 | 1.4245 | – | – | – | – | –
[2], x1 = 0.66 | 1.4325 | 1.4307 | 1.4288 | 1.427 | 1.4255 | – | – | – | – | –
[2], x1 = 0.7 | 1.4331 | 1.4314 | 1.4295 | 1.4278 | 1.4262 | – | – | – | – | –
[2], x1 = 0.801 | 1.4347 | 1.4331 | 1.4313 | 1.4298 | 1.4283 | – | – | – | – | –
[2], x1 = 0.9 | 1.4364 | 1.4349 | 1.4332 | 1.4318 | 1.4304 | – | – | – | – | –
[2], x1 = 0.95 | 1.4373 | 1.4359 | 1.4343 | 1.4329 | 1.4315 | – | – | – | – | –
[2], x1 = 1 | 1.4384 | 1.4371 | 1.4356 | 1.4341 | 1.4328 | – | – | – | – | –

CC(O)CCO (stereo not given) [1,3-butanediol] + C1COCCO1
Settings | refractive index, 298.2 K | refractive index, 303.2 K | refractive index, 308.2 K | refractive index, 313.2 K | refractive index, 318.2 K | relative permittivity, 298.2 K | relative permittivity, 303.2 K | relative permittivity, 308.2 K | relative permittivity, 313.2 K | relative permittivity, 318.2 K
[1], x1 = 0.103 | – | – | – | – | – | 3.36 | 3.34 | 3.32 | 3.3 | 3.28
[1], x1 = 0.204 | – | – | – | – | – | 4.91 | 4.85 | 4.79 | 4.72 | 4.67
[1], x1 = 0.301 | – | – | – | – | – | 6.73 | 6.64 | 6.54 | 6.45 | 6.38
[1], x1 = 0.401 | – | – | – | – | – | 8.96 | 8.82 | 8.66 | 8.52 | 8.38
[1], x1 = 0.451 | – | – | – | – | – | 10.17 | 10 | 9.83 | 9.67 | 9.5
[1], x1 = 0.5 | – | – | – | – | – | 11.44 | 11.23 | 11.02 | 10.85 | 10.61
[1], x1 = 0.548 | – | – | – | – | – | 12.76 | 12.5 | 12.25 | 12.03 | 11.77
[1], x1 = 0.61 | – | – | – | – | – | 14.6 | 14.3 | 13.94 | 13.63 | 13.3
[1], x1 = 0.699 | – | – | – | – | – | 17.46 | 17.03 | 16.58 | 16.15 | 15.73
[1], x1 = 0.788 | – | – | – | – | – | 20.41 | 19.88 | 19.36 | 18.88 | 18.38
[1], x1 = 0.897 | – | – | – | – | – | 24.35 | 23.72 | 23.02 | 22.41 | 21.79
[1], x1 = 0.951 | – | – | – | – | – | 26.42 | 25.72 | 24.98 | 24.29 | 23.61
[1], x1 = 1 | – | – | – | – | – | 28.52 | 27.66 | 26.77 | 25.98 | 25.22
[2], x1 = 0.103 | 1.4217 | 1.4195 | 1.4165 | 1.414 | 1.4112 | – | – | – | – | –
[2], x1 = 0.204 | 1.4235 | 1.4213 | 1.4183 | 1.4161 | 1.4136 | – | – | – | – | –
[2], x1 = 0.301 | 1.425 | 1.423 | 1.4202 | 1.418 | 1.4155 | – | – | – | – | –
[2], x1 = 0.401 | 1.4268 | 1.425 | 1.4222 | 1.4202 | 1.4177 | – | – | – | – | –
[2], x1 = 0.451 | 1.4279 | 1.4258 | 1.4233 | 1.4213 | 1.419 | – | – | – | – | –
[2], x1 = 0.5 | 1.4287 | 1.4267 | 1.4243 | 1.4222 | 1.42 | – | – | – | – | –
[2], x1 = 0.548 | 1.4296 | 1.4275 | 1.4255 | 1.423 | 1.4209 | – | – | – | – | –
[2], x1 = 0.61 | 1.431 | 1.4285 | 1.4262 | 1.4242 | 1.4221 | – | – | – | – | –
[2], x1 = 0.699 | 1.4325 | 1.4308 | 1.4285 | 1.4267 | 1.4247 | – | – | – | – | –
[2], x1 = 0.788 | 1.4342 | 1.4326 | 1.4303 | 1.4287 | 1.4269 | – | – | – | – | –
[2], x1 = 0.897 | 1.4363 | 1.4348 | 1.4333 | 1.4314 | 1.4297 | – | – | – | – | –
[2], x1 = 0.951 | 1.4374 | 1.4361 | 1.4347 | 1.4329 | 1.4313 | – | – | – | – | –
[2], x1 = 1 | 1.4384 | 1.4371 | 1.4356 | 1.4341 | 1.4328 | – | – | – | – | –
